Assay results from article PMC9131456, “Structure-Based Discovery of Lipoteichoic Acid Synthase Inhibitors” (Journal of Chemical Information and Modeling, 2022).

Tested on: S. aureus (strain Newman)
Assay: Thin-section TEM ultrastructure analysis
Format: cell-based
Settings: 5 μM compound 4 or 100 μM compound 9
Protocol: The TEM imaging protocol was adapted from Garufi et al.[68]S. aureus (strain Newman) was grown in 20 mL of MH2 broth with either DMSO, 5 μM of compound 4 or 100 μM of compound 9 at 37 °C. When the control culture had reached an OD600nm ∼ 1, the cells were pelleted at 1520g and submitted to the Cambridge Advanced Imaging Centre for preimaging processing. Briefly, the cells were washed with water and fixed with 2% glutaraldehyde-4% paraformaldehyde in 0.1 M sodium cacodylate buffer (pH 7.2) for 2 h. After fixation, the cells were stained, dehydrated, and embedded in Spurr resin. The resin was cut into thin sections and viewed using a Tecnai G2 Transmission Electron Microscope at 200 kV with a bottom-mounted AMT CCD digital camera.

S=C(Nc1ccc(Cl)cc1)Nc1ccc(Sc2nc3ccccc3[nH]2)cc1 [Compound 9]
ultrastructure of treated S. aureus (TEM): swollen S. aureus cells with a thickened peptidoglycan layer and cell division defects
